The structures appear in SMILES notation.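 96-well plates; 48 h exposure; 5 concentrations. Endpoints by linear interpolation between flanking doses. Not reached: highest tested concentration assigned. TGI is the concentration that stops growth completely.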 Bounds are passed on as bounds.

Among the test systems are NCI-H460 lung; CCRF-CEM leukemia; NCI/ADR-RES ovarian; MALME-3M melanoma; UACC-62 melanoma; KM12 colon; DU-145 prostate; SR leukemia; M14 melanoma; MDA-N; A498 renal; NCI-H522 lung; MDA-MB-231 breast; OVCAR-5 ovarian; T-47D breast; SF-539 CNS; HCT-15 colon; COLO 205 colon; PC-3 prostate; RPMI-8226 leukemia.
Holding throughout (assay): NCI anticancer screen, dose series, 48 h

Regarding `Cc1ccc(NC(=O)CSc2nc(C)nc3c2sc(=S)n3-c2ccccc2)cc1`, the TGI in the assay with NCI-H460 lung, in the assay with CCRF-CEM leukemia, in the assay on NCI/ADR-RES ovarian, with MALME-3M melanoma, with UACC-62 melanoma and in the assay on KM12 colon was over 10 µM in each case. For the same compound, the TGI in the assay on DU-145 prostate, in the assay with SR leukemia, in the assay with M14 melanoma, in the assay on MDA-N, in the assay with A498 renal and in the assay with NCI-H522 lung was over 10 µM throughout. For the same compound, the TGI with MDA-MB-231 breast was over 10 µM; in the assay on OVCAR-5 ovarian it was over 10 µM; in the assay with T-47D breast it was over 10 µM; with SF-539 CNS, 7.81 µM; with HCT-15 colon, over 10 µM; in the assay on COLO 205 colon, over 10 µM. For the same compound, the TGI in the assay on PC-3 prostate and with RPMI-8226 leukemia was over 10 µM in each case.
`Oc1cc(Br)cc2cccnc12`: the TGI in the assay on NCI-H460 lung was 17 µM; with CCRF-CEM leukemia, 4.61 µM; in the assay on NCI/ADR-RES ovarian, 8.26 µM; with MALME-3M melanoma, 47 µM; in the assay with UACC-62 melanoma, 7.81 µM; in the assay with KM12 colon, over 100 µM. Also, the TGI in the assay with DU-145 prostate is over 100 µM; in the assay on SR leukemia, 5.92 µM; in the assay on M14 melanoma, over 37.7 µM; in the assay with MDA-N, 97 µM; in the assay with A498 renal, 24.3 µM; in the assay with NCI-H522 lung, 7.57 µM. Besides, the TGI with MDA-MB-231 breast was 19.1 µM; in the assay with OVCAR-5 ovarian, over 100 µM; in the assay with T-47D breast, 25.4 µM; with SF-539 CNS it was over 45.1 µM; in the assay with HCT-15 colon it was over 100 µM; with COLO 205 colon, 34.8 µM. Further, the TGI with PC-3 prostate was over 100 µM; in the assay with RPMI-8226 leukemia, 5.68 µM.
With `C=CC(c1ccccc1)[C@@]1(OC(C)=O)C(=O)C(=O)OC1C1COC(C)(C)O1` (stereo not given in full), the TGI with NCI-H460 lung was 32.3 µM; in the assay with CCRF-CEM leukemia, over 19.6 µM; in the assay on NCI/ADR-RES ovarian, 51.7 µM; in the assay on MALME-3M melanoma, 34.3 µM; in the assay with UACC-62 melanoma, 29 µM; with KM12 colon, 29.5 µM. Also, the TGI in the assay on DU-145 prostate stood at 54.2 µM; in the assay with SR leukemia, 10.2 µM; in the assay on M14 melanoma it was 25.5 µM; in the assay with MDA-N, 24.1 µM; in the assay on A498 renal, 47.9 µM; with NCI-H522 lung it was 10.8 µM. In addition, the TGI with MDA-MB-231 breast was found to be 28.5 µM; with OVCAR-5 ovarian, 33.2 µM; with T-47D breast, 41.1 µM; in the assay on SF-539 CNS, 29.4 µM; in the assay on HCT-15 colon, 24.9 µM; with COLO 205 colon it was 26.5 µM. Further, the figures for the TGI in the assay with PC-3 prostate and in the assay on RPMI-8226 leukemia were 24.3 µM and 56.4 µM, respectively.
Turning to `COc1c(C)c2c(c(=O)c3c(C)cccc3n2C)c2c1c(=O)c1c(C)cccc1n2C`, the TGI with NCI-H460 lung, in the assay on CCRF-CEM leukemia, with NCI/ADR-RES ovarian, with MALME-3M melanoma, with UACC-62 melanoma and in the assay on KM12 colon was over 10 µM each time. In addition, the TGI with DU-145 prostate, in the assay with SR leukemia, in the assay with M14 melanoma, in the assay with MDA-N, in the assay on A498 renal and in the assay with NCI-H522 lung was over 10 µM in each case. Further, the TGI in the assay on MDA-MB-231 breast, in the assay with OVCAR-5 ovarian, in the assay on T-47D breast, in the assay with SF-539 CNS, with HCT-15 colon and in the assay with COLO 205 colon was over 10 µM each time. Moreover, the TGI in the assay on PC-3 prostate and in the assay on RPMI-8226 leukemia was over 10 µM throughout.
For `CN(C)c1ccc(/C=c2/c3ccccc3n3nc4ccccc4c23)cc1`, the TGI is over 100 µM with NCI-H460 lung; 76.5 µM with CCRF-CEM leukemia; over 100 µM with NCI/ADR-RES ovarian; over 100 µM in the assay with MALME-3M melanoma; over 100 µM in the assay on UACC-62 melanoma; over 100 µM in the assay on KM12 colon. Moreover, the TGI in the assay with DU-145 prostate is over 100 µM; in the assay on SR leukemia, 25.1 µM; with M14 melanoma, over 100 µM; in the assay with MDA-N it was 33.6 µM; with A498 renal, 67 µM; with NCI-H522 lung, 31.9 µM. The TGI with MDA-MB-231 breast was over 100 µM; in the assay on OVCAR-5 ovarian it was over 100 µM; with T-47D breast, 55.4 µM; in the assay on SF-539 CNS it was 84.8 µM; with HCT-15 colon, over 100 µM; in the assay with COLO 205 colon it was 50.9 µM. Further, the TGI was over 100 µM in the assay with PC-3 prostate and 39.1 µM with RPMI-8226 leukemia.
Consider `COc1cc(CNc2ccc3nc4n(c(=O)c3c2)CCCCC4)cc(OC)c1OC`, for which the TGI with NCI-H460 lung, with CCRF-CEM leukemia, in the assay on NCI/ADR-RES ovarian, in the assay on MALME-3M melanoma, with UACC-62 melanoma and in the assay on KM12 colon was over 100 µM each time. Besides, the TGI in the assay with DU-145 prostate, in the assay with SR leukemia, with M14 melanoma, in the assay with MDA-N, in the assay with A498 renal and with NCI-H522 lung was over 100 µM in each case. The TGI in the assay on MDA-MB-231 breast, in the assay on OVCAR-5 ovarian, in the assay on T-47D breast, in the assay with SF-539 CNS, in the assay with HCT-15 colon and with COLO 205 colon was over 100 µM in each case. Further, the TGI in the assay with PC-3 prostate and with RPMI-8226 leukemia was over 100 µM throughout.
With `Oc1cc(-c2ccccc2)cn2c1nc1ccccc12`, the TGI in the assay on NCI-H460 lung is over 100 µM; with CCRF-CEM leukemia it was over 100 µM; in the assay on NCI/ADR-RES ovarian, 11.8 µM; with MALME-3M melanoma it was over 100 µM; with UACC-62 melanoma it was 19.5 µM; in the assay on KM12 colon, over 100 µM. Moreover, the TGI in the assay on DU-145 prostate is over 31.6 µM; with SR leukemia, over 28.5 µM; in the assay on M14 melanoma, over 100 µM; with MDA-N it was over 100 µM; with A498 renal, over 100 µM; with NCI-H522 lung it was over 25.1 µM. Also, the TGI was over 100 µM with MDA-MB-231 breast; over 100 µM with OVCAR-5 ovarian; over 100 µM in the assay on T-47D breast; over 96.6 µM with SF-539 CNS; over 100 µM in the assay with HCT-15 colon; over 100 µM in the assay with COLO 205 colon. The TGI with PC-3 prostate and in the assay on RPMI-8226 leukemia was over 100 µM in each case.
